Where two headings read alike, the source gives them in different places.
Key:
RdFucI [1] = type: biochemical, Raoultella sp. KDH 14
RdFucI [2] = test: Substrate specificity of RdFucI; type: biochemical, Raoultella sp. KDH 14; conditions: aldose and ketose substrates tested
Source text: In general, sugar isomerases show reactivity for various sugars. As a result of testing with various aldoses (L-fucose, D-arabinose, D-altrose, D-galactose, D-mannose and D-glucose) and ketose substrates (L-fuculose, D-ribulose, D-psicose, D-tagatose and D-fructose), the highest activity was shown against L-fuculose (115.3 U/mg) and D-ribulose (127.3 U/mg), showing much higher activities compared to activities for the other tested aldose and ketose substrates.

[3] = pH effect on RdFucI activity for fuculose; type: biochemical, Raoultella sp. KDH 14
[4] = target: the molecule itself; test: crystal structure, self-association of subunits
[5] = Reversible reaction between L-fucose and L-fuculose by RdFucI; type: biochemical, Raoultella sp. KDH 14; conditions: 10 mM substrate, 20 mM sodium phosphate pH 7, 1.5 μg RdFucI, 30° C., 1 mM MnCl2
Experimental: In order to identify what kind of reaction RdFucI favored in a reaction between fucose and fuculose, a reversible reaction of the recombinant enzyme was investigated over time. For this purpose, 10 mM L-fucose (FIG. 4a) or L-fuculose (FIG. 4b) included in 20 mM sodium phosphate (pH7) was used as a substrate, and was each reacted with 1.5 μg of RdFucI at 30° C. in the presence of 1 mM MnCl2, and L-fucose was experimentally quantified. In contrast, L-fuculose was expressed as a calculated value.

[6] = Temperature effect on RdFucI activity for fuculose; type: biochemical, Raoultella sp. KDH 14
Source text: (80% or more of the maximum activity) (FIG. 5a).

[7] = effect of metal ion on RdFucI activity, fuculose as substrate, Control = 100

Molecule	effect of metal ion on enzyme activity (in words) (RdFucI [1]; RdFucI)	Relative activity (%) (RdFucI [1]; [7])	also measured
[Ca+2].[Cl-].[Cl-] [CaCl2]	inhibit the enzyme activity	64 ± 8	
[Cl-].[Cl-].[Co+2] [CoCl2]			Relative activity (%) (RdFucI [1]): 353 ± 83%; effect of metal ion on enzyme activity (in words) (RdFucI [1]): increase the enzyme activity
O=C(CO)[C@H](O)[C@H](O)CO [D-ribulose]			activity of RdFucI against substrate (RdFucI [2]): 127.3 U/mg
[Cl-].[Cl-].[Mg+2] [MgCl2]	increase the enzyme activity	533 ± 31	
[Cl][Fe]([Cl])[Cl] [FeCl3]	inhibit the enzyme activity	74 ± 3	
Tris-HCl [Tris-HCl buffer]			RdFucI activity in the buffer versus other buffer types at the same pH (in words) ([3]; pH 7, 8 and 9, 50 mM, 40° C.): much lower
[Cl-].[Cs+] [CsCl2]		101 ± 16	
C[C@H](O)[C@@H](O)[C@@H](O)C(=O)CO [L-fuculose]			activity of RdFucI against substrate (RdFucI [2]): 115.3 U/mg
[Cl][Cd][Cl] [CdCl2]	increase the enzyme activity	183 ± 9	
[Cl][Ni][Cl] [NiCl2]		91 ± 13	
[Cl][Cu][Cl] [CuCl2]	inhibit the enzyme activity	58 ± 7	
O=S(=O)([O-])[O-].[Li+].[Li+] [LiSO4]		101 ± 15	
O=C(O)CN(CCN(CC(=O)O)CC(=O)O)CC(=O)O [EDTA]			Relative activity (%) (RdFucI [1]): 77 ± 12%
[Cl-].[Cl-].[Zn+2] [ZnCl2]	increase the enzyme activity	159 ± 4	
[Cl][Mn][Cl] [MnCl2]	increase the enzyme activity	738 ± 70	increase of enzyme activity in the presence of the metal ion (RdFucI [1]; RdFucI, fuculose as substrate): about 7 fold
L-fucose isomerase derived from Raoultella sp. KDH 14 strain (enzyme, also called RdFucI; Rd FucI) MKRISLPKIGIRPVIDGRRMGVRESLEAQTMNMAKATAALISEKLRHACGAQIECVIADTCIAGMAESAACEEKFSRQNVGVTITVTPCWCYGSETIDMDPLRPKAIWGFNGTERPGAVYLAAALAAHSQKGIPAFSIYGHDVQDADDTTIPADVEEKLLRFARAGLAVASMKGKSYLSVGGVSMGIAGSIVDHNFFESWLGMKVQAVDMTELRRRIDQKIYDEVELEMALAWADKNFRYGEDQNAQHYKRDEEQSRAVLKESLLMAMCIRDMMQGNEKLAEKGLLEESLGYNAIAAGFQGQRHWTDQYPNGDTAEALLNSSFDWNGVREPFVVATENDSLNGVAMLMGHQLTGTAQVFADVRTYWSPDAVERVTGQPLTGLAEHGIIHLINSGSAALDGSCQQRDEEGKPTMKPHWEISQKEADACLAATEWCPAIHEYFRGGGYSSRFLTEGGVPFTMTRVNLIKGLGPVLQIAEGWSVELPKAMHDQLDARTNSTWPTTWFAPRLTGKGPFADVYSVMANWGANHGVLTIGHVGADFITLAAMLRIPVCMHNVEEGKIYRPSSWSAHGMDTEGQDYRACQNYGPLYKR			binding result [4]: binds
RdFucI: L-fucose isomerase of Raoultella sp. KDH 14, amino acid sequence SEQ ID NO: 1, 591 amino acids (protein, Raoultella sp. KDH 14) MKRISLPKIGIRPVIDGRRMGVRESLEAQTMNMAKATAALISEKLRHACGAQIECVIADTCIAGMAESAACEEKFSRQNVGVTITVTPCWCYGSETIDMDPLRPKAIWGFNGTERPGAVYLAAALAAHSQKGIPAFSIYGHDVQDADDTTIPADVEEKLLRFARAGLAVASMKGKSYLSVGGVSMGIAGSIVDHNFFESWLGMKVQAVDMTELRRRIDQKIYDEVELEMALAWADKNFRYGEDQNAQHYKRDEEQSRAVLKESLLMAMCIRDMMQGNEKLAEKGLLEESLGYNAIAAGFQGQRHWTDQYPNGDTAEALLNSSFDWNGVREPFVVATENDSLNGVAMLMGHQLTGTAQVFADVRTYWSPDAVERVTGQPLTGLAEHGIIHLINSGSAALDGSCQQRDEEGKPTMKPHWEISQKEADACLAATEWCPAIHEYFRGGGYSSRFLTEGGVPFTMTRVNLIKGLGPVLQIAEGWSVELPKAMHDQLDARTNSTWPTTWFAPRLTGKGPFADVYSVMANWGANHGVLTIGHVGADFITLAAMLRIPVCMHNVEEGKIYRPSSWSAHGMDTEGQDYRACQNYGPLYKR			reaction rate of reverse reaction (L-fuculose to L-fucose) versus forward reaction [5]: about 5 fold; relative activity, of the maximum activity, at 30, 40 and 50° C. ([6]; 10 mM substrate, 1.5 μg enzyme, pH 7): ≥ 80%; temperature of highest activity ([6]; 10 mM substrate, 1.5 μg enzyme, pH 7, 10 to 80° C.): 40 °C; enzyme activity out of the 30 to 50° C. range ([6]; L-fuculose as substrate): less than 50%; relative maximum activity at pH 6 to 11 ([3]; sodium acetate, sodium phosphate and glycine-NaOH buffers): ≥ 70%
